Measurements: patent publication US20230099344A1, “COMPOUNDS AND METHODS FOR THE TARGETED DEGRADATION OF IRAK-4” (Arvinas Operations, Inc., priority 2021, published 2023)

Biological target: T1, IRAK-4 (Homo sapiens, UniProt Q9NWZ3)
T1 sequence (Q9NWZ3 1-460): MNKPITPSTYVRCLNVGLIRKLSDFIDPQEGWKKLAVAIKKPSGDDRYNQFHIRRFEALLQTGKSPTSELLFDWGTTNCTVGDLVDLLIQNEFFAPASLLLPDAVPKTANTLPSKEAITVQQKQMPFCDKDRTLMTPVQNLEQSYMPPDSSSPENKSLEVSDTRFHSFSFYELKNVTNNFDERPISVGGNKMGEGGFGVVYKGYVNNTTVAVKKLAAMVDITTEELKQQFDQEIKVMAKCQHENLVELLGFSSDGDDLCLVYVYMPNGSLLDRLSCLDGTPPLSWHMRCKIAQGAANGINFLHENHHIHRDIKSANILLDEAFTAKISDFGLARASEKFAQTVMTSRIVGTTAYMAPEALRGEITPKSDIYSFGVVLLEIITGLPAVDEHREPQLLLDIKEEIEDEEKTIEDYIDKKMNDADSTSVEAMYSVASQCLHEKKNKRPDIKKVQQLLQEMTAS
Assay: IRAK-4 ELISA, OCI-Ly10 degradation
Format: cell-based
Set-up: endogenous in cells
Details: treated overnight; for Dmax: OCI-Ly10, OCI-Ly10 cells
Protocol: Reagents: Human IRAK-4 Matched Antibody Pair Kit (Abcam ab218182) and ELISA Accessory Pack (Abcam ab210905).
Cell Treatment and Lysis:
1. OCI-Ly10: 200,000 cells are seeded at 1×10^6/ml in 96-well U-bottom plates 200 ul per well, treated with compound the same day. Incubate overnight. 2. PBMC: 800,000 cells are seeded at 2×10^6/ml in 96-well U-bottom deep-well plates, 400 ul per well, treated with compound the same day. Incubate overnight.
Cell lysate is collected and analyzed by ELISA for IRAK-4 levels.

Row | SMILES | DC50 (OCI-Ly10 cells) [nM] | Dmax [%] | OCI-LY10 Dmax (OCI-Ly10 cells)
1 | O=C1CCC(N2C(=O)c3ccc(C#CCN4CCC(n5cc6cc(NC(=O)c7cnn8cccnc78)c(OCC7CC7)cc6n5)CC4)cc3C2=O)C(=O)N1 (centres unmarked) [Example 178] | ≥ 100 | 80 to 90 | 
2 | O=C1CCC(N2Cc3cc(N4CCN(CCN5CCC(n6cc7cc(NC(=O)c8cnn9cccnc89)c(OCC8CC8)cc7n6)CC5)CC4)ccc3C2=O)C(=O)N1 (centres unmarked) [Example 160, N-(6-(cyclopropylmethoxy)-2-(1-(2-(4-(2-(2,6-dioxopiperidin-3-yl)-1-oxoisoindolin-5-yl)piperazin-1-yl)ethyl)piperidin-4-yl)-2H-indazol-5-yl)pyrazolo[1,5-a]pyrimidine-3-carboxamide] | < 10 | ≥ 90 | 
3 | O=C1CCC(N2C(=O)c3ccc(OCCOCCN4CCC(n5cc6cc(NC(=O)c7cnn8cc(Cl)cnc78)c(OCC7CC7)cc6n5)CC4)cc3C2=O)C(=O)N1 (centres unmarked) [Example 120] | 10 to 50 | ≥ 90 | 
4 | CC1(CN2CCC(n3cc4cc(NC(=O)c5cnn6cccnc56)c(OCC5CC5)cc4n3)CC2)CN(c2ccc3c(c2)C(=O)N(C2CCC(=O)NC2=O)C3=O)C1 (centres unmarked) [Example 168] | 10 to 50 | ≥ 90 | 
5 | O=C1CCC(N2C(=O)c3ccc(OCCOCCN4CCC(n5cc6cc(NC(=O)c7cnn8cccnc78)c(OCC7CC7)cc6n5)CC4)cc3C2=O)C(=O)N1 (centres unmarked) [Example 121] | 10 to 50 | ≥ 90 | 
6 | O=C1CCC(N2C(=O)c3ccc(N4CCC([C@H](F)Cn5cc6cc(NC(=O)c7cnn8cccnc78)c(OCC7CC7)cc6n5)CC4)cc3C2=O)C(=O)N1 (some centres unmarked) [Example 171] | 50 to 100 | 70 to 80 | 
7 | COc1cc2nn(C3CCN(CC4CCN(c5ccc6c(c5)C(=O)N(C5CCC(=O)NC5=O)C6=O)CC4)CC3)cc2cc1NC(=O)c1cnn2cc(C)cnc12 (centres unmarked) [Example 140] | 10 to 50 | 80 to 90 | 
8 | COc1cc2nn(C3CN(CC4CCN(c5ccc6c(c5)C(=O)N(C5CCC(=O)NC5=O)C6=O)CC4)C3)cc2cc1NC(=O)c1cnn2cccnc12 (centres unmarked) [Example 146] | ≥ 100 |  | 
9 | O=C1CCC(N2C(=O)c3ccc(CCN4CCC(n5cc6cc(NC(=O)c7cnn8cccnc78)c(OCC7CC7)cc6n5)CC4)cc3C2=O)C(=O)N1 (centres unmarked) [Example 127] | 10 to 50 | ≥ 90 | 
10 | COc1cc2nn(C3CCN(CC4CCN(c5ccc6c(c5)C(=O)N(C5CCC(=O)NC5=O)C6=O)CC4)CC3)cc2cc1NC(=O)c1cnn2cccnc12 (centres unmarked) [Example 201] | < 10 | ≥ 90 | 
11 | O=C1CCC(N2C(=O)c3ccc(N4CC(N5CCC(n6cc7cc(NC(=O)c8cnn9cccnc89)c(OCC8CC8)cc7n6)CC5)C4)cc3C2=O)C(=O)N1 (centres unmarked) [Example 163] | 10 to 50 | ≥ 90 | 
12 | CC(C)Oc1cc2c(cc1NC(=O)c1cnn3cccnc13)CN(C1CCN(CCc3ccc4c(c3)CN(C3CCC(=O)NC3=O)C4=O)CC1)C2=O (centres unmarked) [Example 8] | < 10 | ≥ 90 | 
13 | COc1cc2nn(C3CCN(CCc4ccc5c(c4)C(=O)N(C4CCC(=O)NC4=O)C5=O)CC3)cc2cc1NC(=O)c1cnn2cccnc12 (centres unmarked) [Example 144] | ≥ 100 |  | 
14 | Cc1cnc2c(C(=O)Nc3cc4cn(C5CCN(CC6CCN(c7ccc8c(c7)C(=O)N(C7CCC(=O)NC7=O)C8=O)CC6)CC5)nc4cc3OCC3CC3)cnn2c1 (centres unmarked) [Example 130] | 50 to 100 | ≥ 90 | 
15 | O=C1CCC(N2Cc3cc(N4CCC(CN5CCC(n6cc7cc(NC(=O)c8cnn9cccnc89)c(C8CC8)cc7n6)CC5)CC4)ccc3C2=O)C(=O)N1 (centres unmarked) [Example 135] | < 10 | 80 to 90 | 
16 | O=C1CCC(N2Cc3cc(N4CCC(CN5CCC(n6cc7cc(NC(=O)c8cnn9cc(Cl)cnc89)c(OCC8CC8)cc7n6)CC5)CC4)ccc3C2=O)C(=O)N1 (centres unmarked) [Example 129] | < 10 | 80 to 90 | 
17 | O=C1CCC(N2C(=O)c3ccc(OCCN4CCC(n5cc6cc(NC(=O)c7cnn8cccnc78)c(OCC7CC7)cc6n5)CC4)cc3C2=O)C(=O)N1 (centres unmarked) [Example 125] | 10 to 50 | 70 to 80 | 
18 | O=C1CCC(N2Cc3cc(N4CC(CN5CCC(N6Cc7cc(NC(=O)c8cnn9cccnc89)c(N8CCC(N9CCC9)CC8)cc7C6=O)CC5)C4)ccc3C2=O)C(=O)N1 (centres unmarked) [Example 35] | 10 to 50 | ≥ 90 | 
19 | O=C1CCC(N2C(=O)c3ccc(N4CCC(COC[C@H](F)Cn5cc6cc(NC(=O)c7cnn8cccnc78)c(OCC7CC7)cc6n5)CC4)cc3C2=O)C(=O)N1 (some centres unmarked) [Example 181] | ≥ 100 | 80 to 90 | 
20 | O=C1CCC(N2C(=O)c3ccc(N4CC(CN5CCC(n6cc7cc(NC(=O)c8cnn9cccnc89)c(OCC8CC8)cc7n6)CC5)C4)cc3C2=O)C(=O)N1 (centres unmarked) [Example 162] | < 10 | ≥ 90 | 
21 | COc1cc2nn([C@H]3CCN(CC4CCN(c5ccc6c(c5)CN(C5CCC(=O)NC5=O)C6=O)CC4)C[C@@H]3F)cc2cc1NC(=O)c1cnn2cccnc12 (some centres unmarked) [Example 145] | 10 to 50 | ≥ 90 | 
22 | O=C1CCC(N2C(=O)c3ccc(N4CC(COC[C@H](F)Cn5cc6cc(NC(=O)c7cnn8cccnc78)c(OCC7CC7)cc6n5)C4)cc3C2=O)C(=O)N1 (some centres unmarked) [Example 172] | ≥ 100 | 80 to 90 | 
23 | O=C1CCC(N2C(=O)c3ccc(N4CC(CN5CCC(n6cc7cc(CC(=O)c8cnn9cc(Cl)cnc89)c(OCC8CC8)cc7n6)CC5)C4)cc3C2=O)C(=O)N1 (centres unmarked) [Example 164] | 10 to 50 | ≥ 90 | 
24 | CC(C)Oc1cc2c(cc1NC(=O)c1cnn3cccnc13)CN(C1CCN(CCc3ccc4c(c3)C(=O)N(C3CCC(=O)NC3=O)C4=O)CC1)C2=O (centres unmarked) [Example 7] | 10 to 50 | 80 to 90 | 
25 | O=C1CCC(N2C(=O)c3ccc(N4CCN(CCOC[C@H](F)Cn5cc6cc(NC(=O)c7cnn8cccnc78)c(OCC7CC7)cc6n5)CC4)cc3C2=O)C(=O)N1 (some centres unmarked) [Example 180] | 10 to 50 | ≥ 90 | 

The next lines start with the values.

Row | DC50 (OCI-Ly10 cells) [nM] | Dmax [%] | OCI-LY10 Dmax (OCI-Ly10 cells) | SMILES
26 | ≥ 100 |  |  | COc1cc2nn([C@H]3CC[C@@H](OC4CN(c5ccc6c(c5)C(=O)N(C5CCC(=O)NC5=O)C6=O)C4)CC3)cc2cc1NC(=O)c1cnn2cccnc12 (some centres unmarked) [Example 211]
27 | < 10 | ≥ 90 |  | COc1cc2nn(C3CCN(C(C)(C)C4CN(c5ccc6c(c5)C(=O)N(C5CCC(=O)NC5=O)C6=O)C4)CC3)cc2cc1NC(=O)c1cnn2cccnc12 (centres unmarked) [Example 206]
28 | ≥ 100 |  |  | COc1cc2nn(C3CCN(CC4CN(c5ccc6c(c5)C(=O)N(C5CCC(=O)NC5=O)C6=O)C4)C3)cc2cc1NC(=O)c1cnn2cccnc12 (centres unmarked) [Example 209]
29 | 10 to 50 |  | A (A represents a Dmax value ≥90) | COc1cc2nn([C@H]3CC[C@H](N(C)CC#Cc4ccc5c(c4)C(=O)N(C4CCC(=O)NC4=O)C5=O)CC3)cc2cc1NC(=O)c1cnn2cccnc12 (some centres unmarked) [Example 340]
30 | 10 to 50 | ≥ 90 |  | COc1cc2nn(C3CCN(CC4CCN(c5ccc(C(=O)NC6CCC(=O)NC6=O)c(F)c5)CC4)CC3)cc2cc1NC(=O)c1cnn2cccnc12 (centres unmarked) [Example 295]
31 | 10 to 50 | ≥ 90 |  | COc1cc2nn([C@H]3CCN(CC4CCN(c5ccc6c(c5)C(=O)N(C5CCC(=O)NC5=O)C6=O)CC4)C[C@@H]3F)cc2cc1NC(=O)c1cnn2cccnc12 (some centres unmarked) [Example 208]
32 | < 10 | 80 to 90 |  | COc1cc2nn(C3CCN(C4CN(c5ccc6c(c5)C(=O)N(C5CCC(=O)NC5=O)C6=O)C4)CC3)cc2cc1NC(=O)c1cnn2cccnc12 (centres unmarked) [Example 205]
33 | ≥ 100 | 70 to 80 |  | O=C1CCC(N2C(=O)c3ccc(CCN4CCC(N5Cc6cc(NC(=O)c7cnn8cccnc78)c(N7CCOCC7)nc6C5=O)CC4)cc3C2=O)C(=O)N1 (centres unmarked) [Example 405]
34 | ≥ 100 |  |  | COc1cc2nn(C3CCN(CC4CN(c5ccc6c(c5)n(C)c(=O)n6C5CCC(=O)NC5=O)C4)CC3)cc2cc1NC(=O)c1cnn2cccnc12 (centres unmarked) [Example 380]
35 | ≥ 100 | < 70 |  | COc1cc2nn(C[C@@H](F)COCC3CCN(c4ccc5c(c4)C(=O)N(C4CCC(=O)NC4=O)C5=O)CC3)cc2cc1NC(=O)c1cnn2cccnc12 (some centres unmarked) [Example 213]
36 | 50 to 100 | < 70 |  | COc1cc2nn(C3CCN(CC#Cc4ccc5c(c4)C(=O)N(C4CCC(=O)NC4=O)C5=O)CC3)cc2cc1NC(=O)c1cnn2cccnc12 (centres unmarked) [Example 204]
37 | 10 to 50 | ≥ 90 |  | O=C1CCC(NC(=O)c2ccc(N3CC(CN4CCC(n5cc6cc(NC(=O)c7cnn8cc(Cl)cnc78)c(OCC7CC7)cc6n5)CC4)C3)cc2F)C(=O)N1 (centres unmarked) [Example 299]
38 | 50 to 100 | < 70 |  | O=C1CCC(N2C(=O)c3ccc(N4CC(CN5CCC(N6Cc7cc(NC(=O)c8cnn9cccnc89)c(N8CCOCC8)nc7C6=O)CC5)C4)cc3C2=O)C(=O)N1 (centres unmarked) [Example 406]
39 | 10 to 50 | 80 to 90 |  | COc1cc2nn(C3CCN(CC4CN(c5ccc(C(=O)NC6CCC(=O)NC6=O)c(F)c5)C4)CC3)cc2cc1NC(=O)c1cnn2cccnc12 (centres unmarked) [Example 294]
40 | ≥ 100 |  |  | COc1cc2nn(C3CCN(CC4CCN(c5ccc6c(c5)C(=O)N(C5CCC(=O)NC5=O)C6=O)CC4)C3)cc2cc1NC(=O)c1cnn2cccnc12 (centres unmarked) [Example 210]
